According to patent US20110183942A1, “Methods and Compositions for Treating Alzheimer's Disease” (UNIVERSITY OF MEDICINE AND DENTISTRY OF NEW JERSEY, priority 2008, published 2011):

Legend:
[1] = system: Arc protein in DIV14 hippocampal neurons; test: Arc immunocytochemistry in cultured hippocampal neurons; format: cell-based, mouse
Experimental: Immunocytochemistry of cultured neurons was performed as described (Shepherd et al., Neuron, 52, 475-484 (2006)). Briefly, DIV14 primary hippocampal neurons were fixed in fixation solution (4% paraformaldehyde, 4% sucrose containing 1× PBS) for 20 min at 4° C. and were permeabilized with 0.2% Triton X-100 in PBS for 10 min 4° C. Cells were then blocked for 1 hr at room temperature in 10% normal goat serum (NGS). Primary antibodies were diluted (1:250 of phospho-eEF2 antibody, 1:500 of PSD95, 1:300 for Arc) in 10% NGS and incubated with neurons for overnight at 4° C. Alexa 488, or Alexa 555-conjugated secondary antibodies (1:500; Molecular Probes) were diluted in 10% NGS and incubated at room temperature for 1 hr. Coverslips were mounted with PermaFluor containing DAPI (Invitrogen). All images were taken with same exposure and setting using Zeiss 510 Meta confocal microscope. Quantification of Arc levels was carried out using Image J software. For the measurement of dendritic Arc levels, average pixel intensity was measured in the primary dendrites 20 μm away from the soma.

eEF2K-mGluR5 interaction = biological target: T1, eEF2K-mGluR5 interaction (Mus musculus, UniProt Q3UVX5); test: Co-immunoprecipitation of mGluR5 with eEF2K in synaptoneurosomes; conditions: WT forebrain synaptoneurosomes, DHPG 20 min
T1 construct: confirmed that native mGluR5 associated with eEF2K; from tissue; host or cells: mouse forebrain synaptoneurosomes
T1 sequence (Q3UVX5 21-1203 limits assumed): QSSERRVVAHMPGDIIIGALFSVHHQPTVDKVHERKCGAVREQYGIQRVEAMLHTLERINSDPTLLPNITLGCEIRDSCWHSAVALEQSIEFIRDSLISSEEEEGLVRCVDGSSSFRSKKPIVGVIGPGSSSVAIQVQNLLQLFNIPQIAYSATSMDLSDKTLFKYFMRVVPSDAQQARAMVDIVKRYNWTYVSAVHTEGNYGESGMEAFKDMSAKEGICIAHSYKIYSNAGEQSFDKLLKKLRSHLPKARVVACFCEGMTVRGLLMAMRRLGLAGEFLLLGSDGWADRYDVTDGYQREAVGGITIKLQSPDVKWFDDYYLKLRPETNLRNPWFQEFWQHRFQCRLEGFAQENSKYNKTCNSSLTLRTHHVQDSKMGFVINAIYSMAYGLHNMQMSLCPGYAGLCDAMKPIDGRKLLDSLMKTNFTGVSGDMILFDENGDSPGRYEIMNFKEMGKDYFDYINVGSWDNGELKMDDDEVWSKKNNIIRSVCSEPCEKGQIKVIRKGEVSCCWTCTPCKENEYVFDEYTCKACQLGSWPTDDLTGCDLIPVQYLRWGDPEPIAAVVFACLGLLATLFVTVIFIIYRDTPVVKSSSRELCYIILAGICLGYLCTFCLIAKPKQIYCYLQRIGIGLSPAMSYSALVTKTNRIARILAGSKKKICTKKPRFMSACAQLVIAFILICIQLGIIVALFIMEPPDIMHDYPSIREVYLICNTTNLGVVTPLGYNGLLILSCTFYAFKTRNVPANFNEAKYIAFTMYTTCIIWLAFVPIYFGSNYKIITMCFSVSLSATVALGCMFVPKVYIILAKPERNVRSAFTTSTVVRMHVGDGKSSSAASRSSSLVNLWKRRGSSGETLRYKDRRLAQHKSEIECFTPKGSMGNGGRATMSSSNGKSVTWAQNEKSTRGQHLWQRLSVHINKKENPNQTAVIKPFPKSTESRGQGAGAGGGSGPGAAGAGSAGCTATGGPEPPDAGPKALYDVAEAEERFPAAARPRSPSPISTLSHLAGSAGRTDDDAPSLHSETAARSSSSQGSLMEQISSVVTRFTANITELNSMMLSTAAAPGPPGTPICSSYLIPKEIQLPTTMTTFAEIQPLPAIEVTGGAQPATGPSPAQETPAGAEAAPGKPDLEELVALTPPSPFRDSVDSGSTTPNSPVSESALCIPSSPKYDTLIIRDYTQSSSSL

[2] = system: Arc mRNA in cultured neurons; test: Real-time RT-PCR of Arc mRNA; format: cell-based; conditions: BDNF 10 ng/ml at 40 min; forskolin 50 μM at 20 min; DHPG at 20 and 40 min after stimulation
Experimental: RNA samples from neuronal cultures were prepared using the PARIS kit (Ambion) according to the manufacturer's protocol. Following RNA extraction, samples were treated with DNase to remove contaminating DNA prior to cDNA synthesis. Total RNA was reverse transcribed using the SuperScript II First Strand Synthesis System for RT-PCR (Invitrogen) according to the manufacturer's protocol. A negative control without reverse transcriptase was included.
Primer specificity was verified by melt curve analysis. PCR amplification of cDNA was performed using the BioRad iCycler Real-Time Detection System (BioRad Laboratories). cDNA (1 μl) was added to 24 μl of 1× reaction master mix (3 mM MgCl2, KCl, Tris-HCl, iTaq DNA polymerase, 25 units/ml SYBR Green 1, 0.2 mM each dNTPs, 10 nM fluorescein and 500 nM each gene specific primers). […]
GAPDH was used to normalize data. The threshold for detection of PCR product above background was set at 10× the standard deviation of the mean background fluorescence for all reactions. Background fluorescence was determined from cycles 1-5 prior to the exponential amplification of product and subtracted from the raw fluorescence of each reaction/cycle. […] Threshold cycle (CT; number of cycles to reach threshold of detection) was determined for each reaction.
Relative gene expression was determined using the 2^−ΔΔCT method (Livak, et al., Methods 25, 402-408 (2001)). […]

phospho-eEF2 = test: Phospho-eEF2 in hippocampal slices (immunohistochemistry, Western blot); format: cell-based, mouse; conditions: WT hippocampal slices, DHPG 50 μM, 5 min
Experimental: Transfected HEK293T cells or cultured neurons were treated with various drugs and then harvested in IP buffer supplemented with 1% Triton X-100 buffer and Complete™ EDTA-Free protease inhibitors. Soluble fractions were diluted with 4× SDS sample buffer.
Samples were separated electrophoretically using NuPAGE 4-12% Bis-Tris gels (Invitrogen) and transferred to an Immobilon-P PVDF membrane (Millipore). The membrane was blocked with TBST (50 mM Tris, pH 7.5, with 150 mM NaCl, and 0.1% Tween-20) containing 5% non-fat milk for one hour at room temperature, followed by incubation with primary antibody in TBST buffer overnight at 4° C. After three washes with TBST buffer, membranes were incubated with HRP-conjugated anti-rabbit, or anti-mouse antibody in TBST for another hour. After three washes with TBST buffer, the membrane was treated with SuperSignal ECL substrate (Pierce) according to the manufacturer's protocol.
Immunohistochemistry of phospho-eEF2 in WT and eEF2K mice was performed as described (Ramirez-Amaya et al., J. Neurosci. 25, 1761-1768 (2005)) with slight modifications. […] The signals were visualized using the cyanine 3 (CY3) TSA fluorescence system (PerkinElmer Life Sciences), and the nuclei were stained with DAPI (Molecular Probes). No staining was detected in the absence of the primary or secondary antibodies. No phospho-eEF2 signal was detected in eEF2K KO sections.

`NC(C(=O)O)c1cc(O)cc(O)c1` (racemic) [DHPG, (R,S)-3,5-DHPG] was tested, and the “Arc immunoreactivity in dendrites” value ([1]; DHPG 50 μM 5 min, relative to untreated dendrites) was 1.58±0.095, the “Arc immunoreactivity in cell body” value ([1]; DHPG 50 μM 5 min, relative to untreated soma) was 1.34±0.063 and the “level of Arc in soma or dendrites after DHPG” value ([1]; eEF2K KO hippocampal neurons) was “did not change the level of Arc”. The “co-IP of mGluR5 with eEF2K” value (eEF2K-mGluR5 interaction) was “decreased the co-IP of mGluR5”, the “level of Arc mRNA” value [2] was “slightly increased the level of Arc mRNA” and the phospho-eEF2 level (phospho-eEF2) was “dramatically increased”.
